In patent US8372441B2, “Materials and methods for preparation of alkaline earth ferrates from alkaline earth oxides, peroxides, and nitrates” (Biolife, LLC, priority 2007, dated 2013):

Columns and labels:
[1] = cited from earlier work
[2] = solubility in water or saline solution; assay type: physicochemical; conditions: for strontium ferrate water or saline solution
[3] = test system: mammalian blood; conditions: dry powder on blood; cited from earlier work

Compound | solubility in water (background) [1] | solubility in water [2] | hemostasis (background) [3]
strontium ferrate [strontium ferrate (SrFeO4)] | practically insoluble | – | –
[Fe+4].[O-2].[O-2].[O-2].[O-2].[Sr+2].[Sr+2] [Strontium ferrate, strontium ferrate] | – | very insoluble | –
[O]=[Fe][O][Fe]=[O] [Ferric oxide] | – | insoluble | –
[O-2].[Sr+2] [Strontium oxide] | – | – | some hemostasis
[Ba+2].[O]=[Fe](=[O])([O-])[O-] [barium ferrate (BaFeO4), barium ferrate] | practically insoluble | – | –
OO.[Zn] [Zinc peroxide (ZnO2), Zinc peroxide] | – | – | some hemostatic activity
